The numbers were not newly measured in patent US9241912B2, “Agrochemical formulation comprising encapsulated pesticide” (priority 2011, dated 2016), which cites them from elsewhere.

≈ marks a conversion by molar mass, not a printed value.

For one series the following is noted: at 20° C.
Regarding `CCCC(=O)C(C)C` [2-methyl-3-hexanone], the solubility in water was 6.3 g/L (≈ 55.2 mM).

Consider `CCC(C)CCC(C)=O` (stereo not shown) [5-methyl-2-heptanone], for which the solubility in water is 1.0 g/L (≈ 7.8 mM).

`CCC(C)(CC)C(C)=O` [3-ethyl-3-methyl-2-pentanone]: the solubility in water was 1.8 g/L (≈ 14 mM).

With `CCCCC(=O)CCC` [Example 4-octanone, 4-octanone], the solubility in water is 1.0 g/L (≈ 7.8 mM).

As for `CCCC(=O)C(C)CC` (stereo not shown) [3-methyl-4-heptanone], the solubility in water is 1.9 g/L (≈ 14.8 mM).

Take `CCCC(=O)CC(C)C` [2-methyl-4-heptanone]: the solubility in water was 1.7 g/L (≈ 13.3 mM).

In the case of `CC(=O)CC(C)(C)C` [4,4-dimethyl-2-pentanone], the solubility in water was 10.4 g/L (≈ 91.1 mM).

As for `CCC(CC)C(C)=O` [3-ethyl-2-pentanone], the solubility in water was 4.6 g/L (≈ 40.3 mM).

On to `CC(C)C(=O)C(C)(C)C` [2,2,4-trimethyl-3-pentanone], for which the solubility in water is 5.5 g/L (≈ 42.9 mM).

`CCC(=O)C(C)(C)C` [2,2-dimethyl-3-pentanone]: the solubility in water is 10.4 g/L (≈ 91.1 mM).

`CCC(=O)CCC(C)C` [6-methyl-3-heptanone]: the solubility in water is 0.9 g/L (≈ 7.02 mM).

`CCCCC(C)=O` [Example 2-hexanone, 2-hexanone]: the solubility in water is 14 g/L (≈ 140 mM).

For the compound `CCCC(C)(C)C(C)=O` [3,3-dimethyl-2-hexanone], the solubility in water is 2.7 g/L (≈ 21.1 mM).

`CCC(=O)C(C)CC` (stereo not shown) [4-methyl-3-hexanone]: the solubility in water is 5.2 g/L (≈ 45.5 mM).

Consider `CC(=O)CCCC(C)C` [6-methyl-2-heptanone], for which the solubility in water is 0.8 g/L (≈ 6.24 mM).

For `CC1=CC(=O)CC(C)(C)C1` [isoporone], the solubility in water is 15 g/L (≈ 109 mM).

For `CCC(C(C)=O)C(C)C` (stereo not shown) [3-ethyl-4-methyl-2-pentanone], the solubility in water is 1.7 g/L (≈ 13.3 mM).

As for `CC(=O)C(C)C(C)C` (stereo not shown) [3,4-dimethyl-2-pentanone], the solubility in water was 6.7 g/L (≈ 58.7 mM).

As to `CCCCC(=O)C(C)C` [2-methyl-3-heptanone], the solubility in water is 1.4 g/L (≈ 10.9 mM).

Turning to `CCC(=O)C(C)(C)CC` [4,4-dimethyl-3-hexanone], the solubility in water was 2.5 g/L (≈ 19.5 mM).

Regarding `CCCC(C)C(C)=O` (stereo not shown) [3-methyl-2-hexanone], the solubility in water was 4.1 g/L (≈ 35.9 mM).

Turning to `CCCCC(C)C(C)=O` (stereo not shown) [3-methyl-2-heptanone], the solubility in water was 0.9 g/L (≈ 7.02 mM).

Regarding `CCC(C)(C)C(C)=O` [3,3-dimethyl-2-pentanone], the solubility in water is 7.3 g/L (≈ 63.9 mM).

Regarding `CCCC(=O)C(C)(C)C` [2,2-dimethyl-3-hexanone], the solubility in water was 2.8 g/L (≈ 21.8 mM).

Regarding `CCC(C)CC(C)=O` (stereo not shown) [4-methyl-2-hexanone], the solubility in water is 4.3 g/L (≈ 37.7 mM).

In the case of `CCC(C)C(C)C(C)=O` (stereo not shown) [3,4-dimethyl-2-hexanone], the solubility in water was 1.4 g/L (≈ 10.9 mM).

On to `CCC(=O)CC(C)C` [5-methyl-3-hexanone], for which the solubility in water is 5.2 g/L (≈ 45.5 mM).

Still in this series, the particulars now being: not suitable as solvent B.
With `CC(C)=O` [acetone], the “solubility in water (in words)” value is reported as “completely miscible with water”.
